{"source": "patent US9492471B2", "about": "“Methods of treating a disease or disorder associated with Bruton'S Tyrosine Kinase” (Celgene Avilomics Research, Inc., priority 2013, dated 2016)", "experiment_in_all_cases": "HotSpot kinase profiling", "assay_type_in_all_cases": "biochemical", "key": {"[1]": {"molecular_target": "T1, ABL2/ARG (Homo sapiens, UniProt P42684)", "T1 construct": "purchased Reaction Biology Corp", "T1 sequence (P42684 whole entry)": "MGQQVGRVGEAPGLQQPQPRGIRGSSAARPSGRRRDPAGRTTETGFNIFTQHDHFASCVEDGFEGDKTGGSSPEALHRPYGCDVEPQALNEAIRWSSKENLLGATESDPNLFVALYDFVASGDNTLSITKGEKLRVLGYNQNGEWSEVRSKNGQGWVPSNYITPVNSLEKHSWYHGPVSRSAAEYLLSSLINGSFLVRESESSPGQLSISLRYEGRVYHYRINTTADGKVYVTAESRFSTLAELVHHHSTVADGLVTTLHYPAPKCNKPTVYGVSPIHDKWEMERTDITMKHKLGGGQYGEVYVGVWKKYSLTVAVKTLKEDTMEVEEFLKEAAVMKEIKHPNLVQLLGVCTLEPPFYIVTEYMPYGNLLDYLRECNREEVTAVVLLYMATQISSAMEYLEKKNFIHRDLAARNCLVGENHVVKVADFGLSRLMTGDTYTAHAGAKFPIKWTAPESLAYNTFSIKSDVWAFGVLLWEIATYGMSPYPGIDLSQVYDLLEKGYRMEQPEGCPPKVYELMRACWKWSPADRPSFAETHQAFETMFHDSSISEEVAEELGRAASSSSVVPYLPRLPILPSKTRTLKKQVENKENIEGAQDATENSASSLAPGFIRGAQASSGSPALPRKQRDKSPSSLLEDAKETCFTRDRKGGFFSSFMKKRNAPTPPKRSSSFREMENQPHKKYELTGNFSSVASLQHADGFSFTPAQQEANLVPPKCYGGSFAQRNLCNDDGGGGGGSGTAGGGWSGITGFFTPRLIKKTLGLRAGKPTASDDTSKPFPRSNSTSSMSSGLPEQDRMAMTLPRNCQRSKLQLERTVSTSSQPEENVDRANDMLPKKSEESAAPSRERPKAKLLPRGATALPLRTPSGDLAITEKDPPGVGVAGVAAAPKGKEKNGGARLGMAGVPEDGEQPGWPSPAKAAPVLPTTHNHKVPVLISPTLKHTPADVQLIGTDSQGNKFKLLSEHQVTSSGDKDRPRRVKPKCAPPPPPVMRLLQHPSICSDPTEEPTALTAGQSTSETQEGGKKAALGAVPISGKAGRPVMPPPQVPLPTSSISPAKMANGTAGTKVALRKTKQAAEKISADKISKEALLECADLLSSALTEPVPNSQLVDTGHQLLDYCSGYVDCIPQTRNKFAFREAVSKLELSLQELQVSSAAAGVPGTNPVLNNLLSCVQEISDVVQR", "in_short": "(§1)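 Percent inhibition, averaged when run more than once and referenced to a DMSO negative control, came from a radioactive filter-binding readout on P81 paper. Reactions of kinase with freshly made substrate and cofactors ran for 2 h at room temperature.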"}, "[2]": {"molecular_target": "T2, BRAF (Homo sapiens, UniProt P15056)", "T2 construct": "purchased Reaction Biology Corp", "in_short": "as §1"}, "[3]": {"molecular_target": "T3, CDK3/cyclin E (Homo sapiens, UniProt Q00526)", "T3 construct": "purchased Reaction Biology Corp", "T3 sequence (Q00526 whole entry)": "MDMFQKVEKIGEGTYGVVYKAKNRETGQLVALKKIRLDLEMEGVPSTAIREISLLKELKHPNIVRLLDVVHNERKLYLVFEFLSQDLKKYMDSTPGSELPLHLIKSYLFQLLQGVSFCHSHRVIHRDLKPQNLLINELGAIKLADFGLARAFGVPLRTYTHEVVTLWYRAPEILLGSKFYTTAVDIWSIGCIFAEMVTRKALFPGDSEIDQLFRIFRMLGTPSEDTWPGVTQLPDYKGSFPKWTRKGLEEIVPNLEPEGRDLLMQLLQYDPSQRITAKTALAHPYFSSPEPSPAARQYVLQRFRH", "T3 sequence (P24864 whole entry partner)": "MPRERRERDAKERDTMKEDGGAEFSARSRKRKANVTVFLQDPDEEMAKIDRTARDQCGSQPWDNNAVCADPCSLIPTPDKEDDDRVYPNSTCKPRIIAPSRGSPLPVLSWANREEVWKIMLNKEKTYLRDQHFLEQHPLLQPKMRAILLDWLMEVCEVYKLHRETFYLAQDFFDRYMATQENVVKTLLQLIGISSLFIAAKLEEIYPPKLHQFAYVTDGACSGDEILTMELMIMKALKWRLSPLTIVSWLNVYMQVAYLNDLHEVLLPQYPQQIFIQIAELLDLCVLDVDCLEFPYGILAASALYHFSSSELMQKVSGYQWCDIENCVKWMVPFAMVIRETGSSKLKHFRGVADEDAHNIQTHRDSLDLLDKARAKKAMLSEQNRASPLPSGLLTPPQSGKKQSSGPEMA", "in_short": "as §1"}, "[4]": {"molecular_target": "T4, CLK2 (Homo sapiens, UniProt P49760)", "T4 construct": "purchased Reaction Biology Corp", "T4 sequence (P49760 whole entry)": "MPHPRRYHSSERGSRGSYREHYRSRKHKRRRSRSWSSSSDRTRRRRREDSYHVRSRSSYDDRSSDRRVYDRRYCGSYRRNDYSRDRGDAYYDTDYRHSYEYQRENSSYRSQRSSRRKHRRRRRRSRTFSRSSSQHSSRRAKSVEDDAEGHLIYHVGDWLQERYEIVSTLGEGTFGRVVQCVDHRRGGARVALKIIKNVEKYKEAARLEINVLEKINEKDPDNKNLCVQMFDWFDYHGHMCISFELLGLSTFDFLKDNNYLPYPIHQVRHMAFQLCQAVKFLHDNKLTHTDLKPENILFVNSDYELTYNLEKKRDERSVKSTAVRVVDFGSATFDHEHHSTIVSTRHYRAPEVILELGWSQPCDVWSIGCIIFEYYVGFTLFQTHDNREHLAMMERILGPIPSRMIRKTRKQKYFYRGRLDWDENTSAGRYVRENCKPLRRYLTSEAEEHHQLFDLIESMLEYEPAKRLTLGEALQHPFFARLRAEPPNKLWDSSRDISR", "in_short": "as §1"}, "[5]": {"molecular_target": "T5, DYRK3 (Homo sapiens, UniProt O43781)", "T5 construct": "purchased Reaction Biology Corp", "T5 sequence (O43781 1-588)": "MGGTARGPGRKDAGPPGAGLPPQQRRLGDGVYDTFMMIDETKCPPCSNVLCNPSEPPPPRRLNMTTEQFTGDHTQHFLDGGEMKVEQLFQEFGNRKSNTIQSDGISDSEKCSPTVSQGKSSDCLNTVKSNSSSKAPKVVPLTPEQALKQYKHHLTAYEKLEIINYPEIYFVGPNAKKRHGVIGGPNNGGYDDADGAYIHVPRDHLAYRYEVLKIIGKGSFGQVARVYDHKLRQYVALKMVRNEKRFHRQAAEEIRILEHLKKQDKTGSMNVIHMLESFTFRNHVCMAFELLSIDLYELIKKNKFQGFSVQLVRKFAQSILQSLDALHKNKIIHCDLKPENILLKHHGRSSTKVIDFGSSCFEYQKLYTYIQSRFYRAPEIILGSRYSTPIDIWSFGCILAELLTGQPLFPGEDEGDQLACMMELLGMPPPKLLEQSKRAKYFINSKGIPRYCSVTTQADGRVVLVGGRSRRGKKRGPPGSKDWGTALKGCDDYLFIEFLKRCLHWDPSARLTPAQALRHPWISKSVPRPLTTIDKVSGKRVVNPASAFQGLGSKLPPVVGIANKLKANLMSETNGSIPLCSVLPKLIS", "in_short": "as §1"}, "[6]": {"molecular_target": "T6, MARK1 (Homo sapiens, UniProt Q9P0L2)", "T6 construct": "purchased Reaction Biology Corp", "T6 sequence (Q9P0L2 whole entry)": "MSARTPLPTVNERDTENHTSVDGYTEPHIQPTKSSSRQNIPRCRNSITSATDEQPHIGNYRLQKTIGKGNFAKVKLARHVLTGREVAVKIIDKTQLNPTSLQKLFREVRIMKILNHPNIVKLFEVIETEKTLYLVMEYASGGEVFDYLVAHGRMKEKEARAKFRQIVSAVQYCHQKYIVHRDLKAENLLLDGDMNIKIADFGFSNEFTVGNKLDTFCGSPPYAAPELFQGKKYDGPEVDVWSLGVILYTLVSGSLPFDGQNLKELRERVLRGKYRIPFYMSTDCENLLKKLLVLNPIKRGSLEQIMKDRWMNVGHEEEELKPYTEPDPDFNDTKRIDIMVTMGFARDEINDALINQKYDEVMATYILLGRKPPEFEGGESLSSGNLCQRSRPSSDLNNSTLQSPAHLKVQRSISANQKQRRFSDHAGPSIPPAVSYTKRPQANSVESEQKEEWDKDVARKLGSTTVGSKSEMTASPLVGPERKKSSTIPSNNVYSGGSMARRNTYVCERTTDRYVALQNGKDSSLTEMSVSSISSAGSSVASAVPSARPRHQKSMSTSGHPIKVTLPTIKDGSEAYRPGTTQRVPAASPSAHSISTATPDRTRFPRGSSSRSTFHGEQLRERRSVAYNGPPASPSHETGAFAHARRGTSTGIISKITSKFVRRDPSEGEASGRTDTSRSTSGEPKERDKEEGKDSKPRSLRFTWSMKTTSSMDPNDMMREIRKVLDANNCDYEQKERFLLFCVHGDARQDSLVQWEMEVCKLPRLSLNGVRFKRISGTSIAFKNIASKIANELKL", "in_short": "as §1"}, "[7]": {"molecular_target": "T7, MEKK1 (Homo sapiens, UniProt Q13233)", "T7 construct": "purchased Reaction Biology Corp", "T7 sequence (Q13233 whole entry)": "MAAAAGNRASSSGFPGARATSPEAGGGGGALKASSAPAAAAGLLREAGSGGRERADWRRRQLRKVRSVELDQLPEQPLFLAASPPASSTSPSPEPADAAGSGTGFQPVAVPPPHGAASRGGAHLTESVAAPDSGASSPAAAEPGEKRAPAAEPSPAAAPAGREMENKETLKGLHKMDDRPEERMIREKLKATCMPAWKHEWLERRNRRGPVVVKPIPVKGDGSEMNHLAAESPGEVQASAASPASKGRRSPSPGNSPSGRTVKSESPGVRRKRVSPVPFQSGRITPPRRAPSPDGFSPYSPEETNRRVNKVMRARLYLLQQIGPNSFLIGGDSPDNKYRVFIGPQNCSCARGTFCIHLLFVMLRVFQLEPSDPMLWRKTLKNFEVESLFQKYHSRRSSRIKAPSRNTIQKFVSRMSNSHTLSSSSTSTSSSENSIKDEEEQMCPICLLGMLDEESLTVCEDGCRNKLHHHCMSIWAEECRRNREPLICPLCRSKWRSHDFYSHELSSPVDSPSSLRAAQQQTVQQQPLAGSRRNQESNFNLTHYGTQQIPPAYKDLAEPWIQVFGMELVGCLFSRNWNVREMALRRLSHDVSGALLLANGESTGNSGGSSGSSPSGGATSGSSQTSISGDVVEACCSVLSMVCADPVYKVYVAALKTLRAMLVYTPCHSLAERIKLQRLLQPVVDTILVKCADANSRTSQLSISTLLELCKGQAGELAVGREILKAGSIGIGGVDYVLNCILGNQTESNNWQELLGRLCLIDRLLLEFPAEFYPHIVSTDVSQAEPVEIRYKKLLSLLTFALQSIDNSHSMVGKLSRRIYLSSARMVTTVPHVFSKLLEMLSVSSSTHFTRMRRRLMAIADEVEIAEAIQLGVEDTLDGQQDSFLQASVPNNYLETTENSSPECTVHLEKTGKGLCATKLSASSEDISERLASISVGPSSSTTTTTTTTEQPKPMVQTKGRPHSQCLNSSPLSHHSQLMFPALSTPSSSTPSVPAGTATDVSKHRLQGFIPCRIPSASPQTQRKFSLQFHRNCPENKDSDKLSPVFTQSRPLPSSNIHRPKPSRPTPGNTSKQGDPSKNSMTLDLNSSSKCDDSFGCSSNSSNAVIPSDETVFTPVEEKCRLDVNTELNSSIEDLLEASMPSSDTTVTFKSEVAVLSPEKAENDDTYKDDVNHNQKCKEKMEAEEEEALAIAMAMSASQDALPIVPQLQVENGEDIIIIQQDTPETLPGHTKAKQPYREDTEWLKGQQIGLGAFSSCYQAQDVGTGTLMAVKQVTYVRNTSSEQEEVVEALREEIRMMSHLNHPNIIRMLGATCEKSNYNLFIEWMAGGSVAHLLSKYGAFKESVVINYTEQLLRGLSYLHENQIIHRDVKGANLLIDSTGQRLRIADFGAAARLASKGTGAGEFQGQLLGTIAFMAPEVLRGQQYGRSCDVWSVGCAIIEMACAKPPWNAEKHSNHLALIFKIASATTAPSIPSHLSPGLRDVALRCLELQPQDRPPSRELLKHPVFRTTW", "in_short": "as §1"}, "[8]": {"molecular_target": "T8, PKG2/PRKG2 (Homo sapiens, UniProt Q13237)", "T8 construct": "purchased Reaction Biology Corp", "T8 sequence (Q13237 1-762)": "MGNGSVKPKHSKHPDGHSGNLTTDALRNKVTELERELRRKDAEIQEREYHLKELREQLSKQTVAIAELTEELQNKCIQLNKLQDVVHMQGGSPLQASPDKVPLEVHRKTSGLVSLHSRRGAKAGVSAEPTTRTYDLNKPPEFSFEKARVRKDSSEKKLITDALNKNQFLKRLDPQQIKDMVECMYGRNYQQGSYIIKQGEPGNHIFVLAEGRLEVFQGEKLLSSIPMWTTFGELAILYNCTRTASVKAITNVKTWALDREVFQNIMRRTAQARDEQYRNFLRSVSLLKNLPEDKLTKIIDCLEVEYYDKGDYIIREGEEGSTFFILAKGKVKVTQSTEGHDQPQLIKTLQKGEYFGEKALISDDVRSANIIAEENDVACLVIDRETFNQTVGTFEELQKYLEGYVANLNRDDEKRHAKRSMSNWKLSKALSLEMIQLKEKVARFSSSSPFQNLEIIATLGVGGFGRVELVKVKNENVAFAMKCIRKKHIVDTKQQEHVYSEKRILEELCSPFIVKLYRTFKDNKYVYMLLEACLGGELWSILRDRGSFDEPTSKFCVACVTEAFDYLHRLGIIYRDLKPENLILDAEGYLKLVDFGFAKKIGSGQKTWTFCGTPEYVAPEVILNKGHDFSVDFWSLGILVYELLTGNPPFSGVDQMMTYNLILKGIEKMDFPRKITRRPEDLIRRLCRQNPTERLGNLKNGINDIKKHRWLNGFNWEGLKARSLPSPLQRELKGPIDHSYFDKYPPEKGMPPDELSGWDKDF", "in_short": "as §1"}, "[9]": {"conditions": "read-out: % Enzyme Activity (relative to DMSO controls) Run 1"}, "[10]": {"conditions": "read-out: % Enzyme Activity (relative to DMSO controls) Run 2"}}, "note": "Like-named read-outs stand apart in the source and are kept apart here."}
{"smiles": "C=CC(=O)Nc1cccc(Nc2nc(Nc3ccc(OCCOC)c(F)c3)ncc2F)c1", "note": "[Compound 2]", "values": [{"measurement": "inhibition at 3 µM", "setting": "[1]", "value": 62.8, "unit": "%"}, {"measurement": "remaining activity at 3 µM", "setting": "[1]; [9]", "value": 37.3, "unit": "%"}, {"measurement": "remaining activity at 3 µM", "setting": "[1]; [10]", "value": 37.1, "unit": "%"}, {"measurement": "inhibition at 3 µM", "setting": "[2]", "value": 0.04, "unit": "%"}, {"measurement": "remaining activity at 3 µM", "setting": "[2]; [9]", "value": 101, "unit": "%"}, {"measurement": "remaining activity at 3 µM", "setting": "[2]; [10]", "value": 99.1, "unit": "%"}, {"measurement": "inhibition at 3 µM", "setting": "[3]", "value": 22.4, "unit": "%"}, {"measurement": "remaining activity at 3 µM", "setting": "[3]; [9]", "value": 78.2, "unit": "%"}, {"measurement": "remaining activity at 3 µM", "setting": "[3]; [10]", "value": 77, "unit": "%"}, {"measurement": "inhibition at 3 µM", "setting": "[4]", "value": 49.6, "unit": "%"}, {"measurement": "remaining activity at 3 µM", "setting": "[4]; [9]", "value": 50.2, "unit": "%"}, {"measurement": "remaining activity at 3 µM", "setting": "[4]; [10]", "value": 50.6, "unit": "%"}, {"measurement": "inhibition at 3 µM", "setting": "[5]", "value": 14.1, "unit": "%"}, {"measurement": "remaining activity at 3 µM", "setting": "[5]; [9]", "value": 86, "unit": "%"}, {"measurement": "remaining activity at 3 µM", "setting": "[5]; [10]", "value": 85.9, "unit": "%"}, {"measurement": "inhibition at 3 µM", "setting": "[6]", "value": 5.86, "unit": "%"}, {"measurement": "remaining activity at 3 µM", "setting": "[6]; [9]", "value": 90.9, "unit": "%"}, {"measurement": "remaining activity at 3 µM", "setting": "[6]; [10]", "value": 97.3, "unit": "%"}, {"measurement": "inhibition at 3 µM", "setting": "[7]", "value": -14.7, "unit": "%"}, {"measurement": "remaining activity at 3 µM", "setting": "[7]; [9]", "value": 113, "unit": "%"}, {"measurement": "remaining activity at 3 µM", "setting": "[7]; [10]", "value": 117, "unit": "%"}, {"measurement": "inhibition at 3 µM", "setting": "[8]", "value": 14.2, "unit": "%"}, {"measurement": "remaining activity at 3 µM", "setting": "[8]; [9]", "value": 87.2, "unit": "%"}, {"measurement": "remaining activity at 3 µM", "setting": "[8]; [10]", "value": 84.5, "unit": "%"}]}
